Where a name gives a salt, the structure may show the parent alone.
Experiments:
[1] = system: 5-HT-induced contractions in guinea pig ileum; assay: Inhibition of 5-HT-induced contractions in guinea pig ileum (Assay 3); conditions: Cavia porcellus, 5-HT 2.6 μM, read-out: Inhibition of 5-HT-induced contraction (%)
Method: (§1) Duncan Hartley derived male guinea pigs (325±25 g) were suppressed by CO2 overexposure, the abdominal cavity was exposed and ileal segments were removed. Small strips of ileum were suspended in organ baths containing Krebs solution (composition in g/l: NaCl 6.89, KCl 0.35, CaCl2 0.277, KH2PO4 0.163, MgSO4.7H2O 0.296, NaHCO3 2.1 glucose 1.8). The solution was kept at 32° C. and gassed with O2 (95%)-CO2 (5%) to maintain pH at 7.4. Mechanical activity was recorded by means of isotonic transducers. A resting tension of 1 g was applied to muscle strips before being equilibrated for 1 h, prior to test compound addition. Each preparation was washed twice at 15 min intervals during the equilibration.
(§2) Histamine (1.7 μM; approximately EC60-70) or 5-hydroxytryptamine (5-HT, 2.6 μM; approximately EC60-70) was applied for 5 min and the amplitude of the contraction recorded. The histamine or 5-HT was then washed out until the ileal tissue returned to baseline. Five min after returning to baseline test compound (3 and 30 μM) was applied and the amplitude of the contraction (if any) was recorded. In the continuous presence of test compound, histamine or 5-HT was re-applied and the inhibition of the response was recorded.

[2] = system: histamine-induced contractions in guinea pig ileum; assay: Inhibition of histamine-induced contractions in guinea pig ileum (Assay 3); conditions: Cavia porcellus, histamine 1.7 μM, read-out: Inhibition of histamine-induced contraction (%)
Method: as §1, §2

[3] = system: IL-1α-induced PGE2 release; assay: IL-1α-induced PGE2 release in human diploid lung fibroblasts (WI-38) (Assay 5); format: cell-based; conditions: Homo sapiens, WI-38 cells, IL-1α 1 nM, overnight
Method: (§3) Human diploid lung fibroblasts (WI-38 cells) were incubated overnight in the presence of IL-1α (1 nM) and test compound (3 and 30 μM) in modified Eagle medium at pH 7.3 containing foetal bovine serum (10%) at 37° C. The supernatant was assayed by radioimmunoassay for released PGE2 and the inhibition of PGE2 by test compound calculated (Table 10). The viability of the cells was then assessed by washing with Roswell Park Memorial Institute medium and adding Alamar Blue reagent before being incubated at 37° C. for 4 h. Living cells take up Alamar Blue and emit fluorescence when excited. Fluorescence intensity was measured using a SpectroFluor Plus plate reader with excitation at 530 nm and emission at 590 nm (Table 10).

[4] = system: α-smooth muscle actin (α-SMA) mRNA; assay: Anti-remodelling activity in human lung fibroblasts (HFL1): TGFβ-induced α-SMA mRNA (Assay 4); format: cell-based; conditions: Homo sapiens, HFL1 cells, TGFβ 10 ng/ml, 24 h, read-out: Inhibition of α-SMA mRNA synthesis (%)
Method: A human foetal lung fibroblast cell line (HFL1 cells; ATCC accession number CCl-153) was used in this assay. The cells were cultured in medium containing a low level of foetal bovine serum (FBS; 0.1%) for 24 h. After 24 h of culturing the medium was changed to: (a) Control medium (medium containing 10% FBS, 1% phosphate saline and 0.5 mM L-glutamine), (b) Control medium and transforming growth factor beta (TGFβ; 10 ng/ml), (c) Control medium and TGFβ and test compounds (3 and 30 μM). The medium was collected after 24 h and the total mRNA extracted in Tri-reagent. The level of mRNA coding for α-smooth muscle actin (α-SMA) was assessed by real-time reverse transcription-polymerase chain reaction (rtRT-PCR) using primer couples that allow the amplification of α-SMA mRNA. Liver glyceraldehydes 3-phosphate dehydrogenase (GADPH) was used as a reference marker in this experiment. The inhibition of the TGTβ-induced overexpression of α-SMA mRNA by the test compounds was quantified.

[5] = molecular target: T1, 5-lipoxygenase (Homo sapiens, UniProt P09917); assay: 5-lipoxygenase activity (LTB4) in human peripheral blood mononuclear leukocytes (Assay 6); format: cell-based; conditions: human PBMLs, A23187 30 μM, read-out: Inhibition of 5-LO (%)
T1 construct: endogenous in cells; host or cells: human peripheral blood mononuclear leukocytes (PBMLs)
T1 sequence (P09917 1-674): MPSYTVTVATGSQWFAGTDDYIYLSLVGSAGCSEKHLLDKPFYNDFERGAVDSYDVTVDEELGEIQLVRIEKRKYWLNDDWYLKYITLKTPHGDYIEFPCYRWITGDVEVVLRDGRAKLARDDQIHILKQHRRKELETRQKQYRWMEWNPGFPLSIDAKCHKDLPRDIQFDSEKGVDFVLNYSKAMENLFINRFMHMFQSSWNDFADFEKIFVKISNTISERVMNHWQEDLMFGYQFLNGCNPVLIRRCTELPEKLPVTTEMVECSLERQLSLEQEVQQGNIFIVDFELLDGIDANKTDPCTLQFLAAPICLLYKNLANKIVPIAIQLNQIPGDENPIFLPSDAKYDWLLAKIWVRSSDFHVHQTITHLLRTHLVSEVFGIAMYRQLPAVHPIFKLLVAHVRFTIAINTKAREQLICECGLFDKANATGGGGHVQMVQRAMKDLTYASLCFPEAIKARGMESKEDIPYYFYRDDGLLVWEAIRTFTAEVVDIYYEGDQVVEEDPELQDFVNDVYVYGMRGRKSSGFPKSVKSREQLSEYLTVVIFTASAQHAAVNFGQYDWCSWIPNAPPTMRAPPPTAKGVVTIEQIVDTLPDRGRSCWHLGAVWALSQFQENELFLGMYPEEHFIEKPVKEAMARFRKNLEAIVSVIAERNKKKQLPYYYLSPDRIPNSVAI
Method: Human peripheral blood mononuclear leukocytes (PBMLs) were isolated using a Ficoll-Paque density gradient. Human peripheral blood mononuclear leukocytes (5×10^6 cells) were incubated with A23187 (30 μM), a divalent cation ionophore used to initiate the biosynthesis of […], and with vehicle (0.1% DMSO) or test compound (3 and 30 μM) in Hank's balanced salt solution (HBBS) buffer, pH 7.4 at 37° C. for 15 min. The PBML solution was neutralized with NaOH (1 N) and centrifuged at 1000 g for 10 min and the supernatant collected. The concentration of leukotriene B4 (LTB4) in the supernatant was measured using an enzyme immunoassay kit (Assay Design Inc.). A reduction in the concentration of LTB4 indicated an inhibition of the enzyme 5-lipoxygenase (Table 11).

[6] = system: WI-38 cells; assay: Viability of WI-38 cells, Alamar Blue (Assay 5); format: cell-based, human
Method: as §3

[7] = molecular target: TRPV1 receptor (Rattus norvegicus, UniProt O35433); assay: TRPV1 modulation in DRG neurones: CGRP release in absence and presence of capsaicin (Assay 2); format: cell-based; set-up: The culture used for this experiment contained sensory neurones, Schwann cells and fibroblasts; endogenous in cells; host or cells: primary rat DRG sensory neurone culture (with Schwann cells and fibroblasts); conditions: 20 min; for inhibition at 3 µM: 3 μM with capsaicin 1 μM; for Emax at 3 µM: test compound alone 3 μM; for Emax at 3 µM / Emax at 30 µM: rat DRG sensory neurones, read-out: CGRP release (% of capsaicin (1 μM) response); for Emax at 30 µM: test compound alone 30 μM
[8] = −ve: inhibition, +ve: potentiation of capsaicin response, read-out: Effect of test compounds on capsaicin (1 μM)-induced CGRP release (%)
[9] = 30 μM with capsaicin 1 μM, −ve: inhibition, +ve: potentiation of capsaicin response, read-out: Effect of test compounds on capsaicin (1 μM)-induced CGRP release (%)

TRPV1 receptor, sequence (O35433 whole entry): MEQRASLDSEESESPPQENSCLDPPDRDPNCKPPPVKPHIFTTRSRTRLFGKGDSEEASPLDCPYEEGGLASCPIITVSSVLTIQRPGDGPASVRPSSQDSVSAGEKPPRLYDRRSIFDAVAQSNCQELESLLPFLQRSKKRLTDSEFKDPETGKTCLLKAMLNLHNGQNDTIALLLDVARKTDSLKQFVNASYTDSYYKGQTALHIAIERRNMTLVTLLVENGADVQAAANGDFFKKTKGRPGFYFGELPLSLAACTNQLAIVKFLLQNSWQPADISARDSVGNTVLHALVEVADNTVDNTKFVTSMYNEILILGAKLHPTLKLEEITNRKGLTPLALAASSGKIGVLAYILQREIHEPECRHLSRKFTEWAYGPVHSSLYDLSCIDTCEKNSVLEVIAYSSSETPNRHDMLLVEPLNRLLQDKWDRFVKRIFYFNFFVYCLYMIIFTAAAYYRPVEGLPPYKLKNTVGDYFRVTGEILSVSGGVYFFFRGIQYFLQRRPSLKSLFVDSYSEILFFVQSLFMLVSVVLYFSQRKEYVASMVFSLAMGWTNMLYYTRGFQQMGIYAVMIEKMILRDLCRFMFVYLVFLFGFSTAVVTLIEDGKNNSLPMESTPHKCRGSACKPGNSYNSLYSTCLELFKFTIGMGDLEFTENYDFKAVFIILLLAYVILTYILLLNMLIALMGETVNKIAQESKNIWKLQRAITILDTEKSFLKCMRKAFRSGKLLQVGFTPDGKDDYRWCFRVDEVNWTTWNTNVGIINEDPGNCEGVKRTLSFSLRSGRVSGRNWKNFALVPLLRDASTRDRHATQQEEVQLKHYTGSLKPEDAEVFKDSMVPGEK

Row | SMILES | inhibition at 3 µM [5] | inhibition at 30 µM [5] | inhibition at 3 µM [7, 8] | inhibition at 30 µM [7, 9] | Emax at 3 µM [7] | Emax at 30 µM [7] | percent change in capsaicin-induced CGRP release (negative = inhibition, positive = potentiation) at 30 µM [7, 9] | inhibition at 3 µM [1] | inhibition at 30 µM [1] | inhibition at 3 µM [2] | inhibition at 30 µM [2] | inhibition at 3 µM [3] | inhibition at 30 µM [3] | inhibition at 3 µM [4] | inhibition at 30 µM [4] | Decrease in cell viability (%) ([6]; 3 μM) | Decrease in cell viability (%) ([6]; 30 μM)
1 | COc1cc(CCC(=O)C(Cc2ccccc2)C(=O)c2ccccc2)ccc1O (centres unmarked) [Compound 13, 2-Benzyl-5-(4-hydroxy-3-methoxyphenyl)-1-phenylpentane-1,3-dione] | 51% | 98% | 48% | -67% | 75% | 245% | – | 15% | 66% | 6% | 78% | 73% | 99% | 14% | 77% | −4% | −3%
2 | COC(=O)c1ccc(C(=O)CC(=O)CCc2ccc(O)c(OC)c2)cc1 [Compound 25, Methyl 4-(5-(4-hydroxy-3-methoxyphenyl)-3-oxopentanoyl)benzoate] | 54% | 94% | 18% | 21% | 48% | 59% | – | 12% | 35% | 1% | 43% | 58% | 102% | -3% | 20% | −6% | 0%
3 | COc1cc(CCC(=O)C(C)C(=O)c2ccc(O)c(OC)c2)ccc1O (centres unmarked) [Compound 16, 1,5-Bis(4-hydroxy-3-methoxyphenyl)-2-methyl-pentane-1,3-dione] | 20% | 73% | -49% | -49% | 53% | 52% | – | 0% | 28% | 4% | 22% | 32% | 83% | -8% | 10% | 10% | −9%
4 | COc1cc(CCC(=O)CC(=O)c2ccc3ccccc3c2)c(Cl)cc1O [Compound 86, 5-(2-Chloro-4-hydroxy-5-methoxyphenyl)-1-(naphthalene-3-yl)pentane-1,3-dione] | 52% | 98% | – | – | – | – | – | 4% | 19% | 0% | 9% | 42% | 100% | – | – | 7% | 37%

Continued, in another order:

Row | inhibition at 3 µM [5] | inhibition at 30 µM [5] | inhibition at 3 µM [7, 8] | inhibition at 30 µM [7, 9] | Emax at 3 µM [7] | Emax at 30 µM [7] | percent change in capsaicin-induced CGRP release (negative = inhibition, positive = potentiation) at 30 µM [7, 9] | SMILES | inhibition at 3 µM [1] | inhibition at 30 µM [1] | inhibition at 3 µM [2] | inhibition at 30 µM [2] | inhibition at 3 µM [3] | inhibition at 30 µM [3] | inhibition at 3 µM [4] | inhibition at 30 µM [4] | Decrease in cell viability (%) ([6]; 3 μM) | Decrease in cell viability (%) ([6]; 30 μM)
5 | 52% | 99% | 11% | – | 66% | 144% | 0% | COc1cc(CCC(=O)CC(=O)c2ccc(C(C)(C)C)cc2)ccc1O [Compound 83, 1-(4-tert-Butylphenyl)-5-(4-hydroxy-3-methoxyphenyl)pentane-1,3-dione] | 4% | 11% | 16% | 17% | 86% | 102% | -2% | 86% | 4% | 31%
6 | -1% | 63% | – | – | – | – | – | COc1cc(CCC(=O)C(C)(C)C(=O)C2(C)CC2)ccc1O [Compound 70, 5-(4-Hydroxy-3-methoxyphenyl)-2,2-dimethyl-1-(1-methylcyclopropyl)pentane-1,3-dione] | 2% | 46% | 4% | 29% | 42% | 86% | – | – | 0% | 5%
7 | -6% | 19% | – | – | – | – | – | COc1cc(CCC(=O)CC(=O)c2ccccc2)ccc1OCCN [Compound 87, 5-(4-(2-aminoethoxy)-3-methoxyphenyl)-1-phenylpentane-1,3-dione hydrochloride] | 15% | 93% | 0% | 58% | -28% | -62% | – | – | – | –

— US7589123B2, “Chemical compounds” (Phytopharm PLC, priority 2006, dated 2009)
